In patent US20260167935A1, “METHOD FOR CULTURING TONSIL-DERIVED MESENCHYMAL STEM CELLS USING N-ACETYLCYSTEINE (NAC)” (priority 2023, published 2026):

Legend:
[1] = tested on: tonsil-derived human MSCs (hMSC-T, passage 6); test: Antioxidant activity (ROS assay) upon NAC pretreatment followed by PYBR treatment; assay type: cell-based; settings: NAC pretreatment 10 mM and 20 mM for 24 hours, then PYBR 5, 10, 20 μg/mL for 24 hours; FIG. 5
Protocol: In order to evaluate antioxidant activity upon NAC treatment, tonsil-derived human MSCs (hMSC-T, passage 6) were seeded in a culture medium at a density of 1×10^4 cells/well. On the following day, NAC was treated at concentrations of 10 mM and 20 mM for 24 hours. Thereafter, the cells were washed with PBS and the medium was replaced, followed by treatment with PYBR at concentrations of 5, 10, and 20 μg/mL. After 24 hours, the cells were washed three times with PBS and incubated in 100 μL of ROS working solution at 37° C. for 30 minutes in the dark. Absorbance was then measured at 488/525 nm (FIG. 4). A group not treated with NAC was used as a positive control.

[2] = tested on: tonsil-derived human MSCs (hMSC-T, passage 6); test: Cell viability (WST, absorbance at 450 nm) upon NAC pretreatment followed by PYBR treatment; assay type: cell-based; settings: NAC pretreatment 10 mM and 20 mM for 24 hours, then PYBR 5, 10, 20 μg/mL for 24 hours; FIG. 3
Protocol: In order to evaluate cell viability upon NAC treatment, tonsil-derived human MSCs (hMSC-T, passage 6) were seeded in a culture medium at a density of 1×10^3 cells/well. On the following day, NAC was treated at concentrations of 10 mM and 20 mM for 24 hours. Thereafter, the cells were washed with PBS and the medium was replaced, followed by treatment with PYBR at concentrations of 5, 10, and 20 μg/mL. After 24 hours, the cells were washed three times with PBS and transferred to fresh medium (100 μL) containing 10 μL of WST solution, and incubated at 37° C. for 2 hours in the dark. Absorbance at 450 nm was then measured to evaluate cell viability (FIG. 2). A group not treated with NAC was used as a positive control.

[3] = tested on: tonsil-derived human MSCs; test: Cell viability after NAC pretreatment for 24 hours (determination of NAC pretreatment concentration); settings: NAC 10 mM, FIG. 1
Protocol: In order to determine the concentration of NAC for pretreatment of tonsil-derived human MSCs, the tonsil-derived human MSCs were pretreated with NAC prepared in Example 1 at concentrations of 2, 4, 6, 8, 10, 15, and 100 mM for 24 hours, and then cell viability was evaluated.

Structure (SMILES): CC(=O)NC(CS)C(=O)O (stereo not drawn) [NAC, 2-acetamido-3-sulfanylpropanoic acid]
- ROS levels after PYBR treatment [1]: significantly reduced ROS levels
- cell viability after PYBR treatment [2]: significantly restored cell viability
- cytotoxicity (cell viability) [3]: no cytotoxicity was observed
